According to ChEMBL document CHEMBL1138953 (Bioorg Med Chem Lett, 2006):

How the values were obtained:
Cannabinoid receptor 1 = Cannabinoid receptor 1 (Homo sapiens, UniProt P21554); assay: Displacement of [3H]CP-55-940 from human recombinant CB1 receptor in COS cells; format: cell-based
Cannabinoid receptor 2 = Cannabinoid receptor 2 (Homo sapiens, UniProt P34972); assay: Displacement of [3H]CP-55-940 from human recombinant CB2 receptor in COS cells; format: cell-based
Chain of Cannabinoid receptor 2 (P34972 whole entry): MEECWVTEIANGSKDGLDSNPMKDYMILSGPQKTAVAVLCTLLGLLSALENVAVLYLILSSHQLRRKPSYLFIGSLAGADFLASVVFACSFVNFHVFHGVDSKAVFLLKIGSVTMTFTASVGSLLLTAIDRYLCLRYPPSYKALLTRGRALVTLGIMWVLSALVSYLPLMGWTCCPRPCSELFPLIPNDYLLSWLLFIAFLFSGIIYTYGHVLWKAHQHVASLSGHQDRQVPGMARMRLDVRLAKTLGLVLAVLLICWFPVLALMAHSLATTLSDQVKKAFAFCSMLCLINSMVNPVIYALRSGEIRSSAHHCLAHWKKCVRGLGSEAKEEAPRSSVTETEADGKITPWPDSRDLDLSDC

Chain of Cannabinoid receptor 1 (P21554 whole entry): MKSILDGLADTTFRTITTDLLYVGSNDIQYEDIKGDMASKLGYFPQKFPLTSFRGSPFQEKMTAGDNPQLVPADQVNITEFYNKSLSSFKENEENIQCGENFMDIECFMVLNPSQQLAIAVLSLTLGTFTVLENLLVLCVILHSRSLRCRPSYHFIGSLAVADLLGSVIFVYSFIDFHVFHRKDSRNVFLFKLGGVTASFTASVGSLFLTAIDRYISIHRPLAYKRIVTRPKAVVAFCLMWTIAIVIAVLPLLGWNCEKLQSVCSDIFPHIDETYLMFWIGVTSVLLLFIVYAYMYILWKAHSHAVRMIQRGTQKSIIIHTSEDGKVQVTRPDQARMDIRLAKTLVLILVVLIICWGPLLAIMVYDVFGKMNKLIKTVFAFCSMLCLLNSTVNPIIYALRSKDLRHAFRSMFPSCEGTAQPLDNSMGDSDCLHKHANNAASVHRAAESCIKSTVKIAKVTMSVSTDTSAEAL

**Q.** Which results are given for `C[C@H](CO)NC(=O)CCC/C=C\C/C=C\C/C=C\C/C=C\CCOC(=O)c1cc(I)ccc1N=[N+]=[N-]`?
**A.** Ki (Cannabinoid receptor 1): 570 nM; Ki (Cannabinoid receptor 2): 220 nM
